Key:
CYP2C9 = CYP2C9 (Homo sapiens, UniProt P11712); conditions: recombinant enzyme
CYP3A4 = CYP3A4 (Homo sapiens, UniProt P08684); assay: Intrinsic clearance in human recombinant CYP3A4
[1] = In vitro Caco-2 cell permeability; format: in vitro ADME; conditions: human
Description: The first-order absorption model has different absorption rate constants (ka) and fraction available from dosage form (fa) to simulate absorption processes in fasting and fed states. […] Caco-2 (human colorectal adenocarcinoma) cells are used to model the intestinal epithelial barrier. The Simcyp (Version 19.0, Certara Inc., Sheffield, UK) minimal PBPK, which treats all organs other than the intestine and liver as a single compartment ([Rowland Yeo et al., 2010]), was selected, along with a single adjusting compartment (SAC) distribution model. The SAC is a nonphysiologic compartment that permits adjustment to the drug concentration profile in the systemic compartment ([Ke et al., 2016]).

Chain of CYP2C9 (P11712 whole entry): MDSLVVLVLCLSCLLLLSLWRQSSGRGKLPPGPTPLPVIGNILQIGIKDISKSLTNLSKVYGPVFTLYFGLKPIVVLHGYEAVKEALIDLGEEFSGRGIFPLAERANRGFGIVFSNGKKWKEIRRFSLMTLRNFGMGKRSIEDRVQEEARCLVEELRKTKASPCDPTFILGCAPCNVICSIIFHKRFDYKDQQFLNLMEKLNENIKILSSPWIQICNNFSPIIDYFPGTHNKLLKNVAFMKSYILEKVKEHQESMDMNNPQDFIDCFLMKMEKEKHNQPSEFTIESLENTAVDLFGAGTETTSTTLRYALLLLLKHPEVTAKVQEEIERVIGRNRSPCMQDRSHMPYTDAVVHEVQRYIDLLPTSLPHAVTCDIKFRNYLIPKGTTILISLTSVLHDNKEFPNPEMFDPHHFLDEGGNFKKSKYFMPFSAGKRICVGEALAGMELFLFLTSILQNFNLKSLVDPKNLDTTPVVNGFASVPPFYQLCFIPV
Chain of CYP3A4 (P08684 whole entry): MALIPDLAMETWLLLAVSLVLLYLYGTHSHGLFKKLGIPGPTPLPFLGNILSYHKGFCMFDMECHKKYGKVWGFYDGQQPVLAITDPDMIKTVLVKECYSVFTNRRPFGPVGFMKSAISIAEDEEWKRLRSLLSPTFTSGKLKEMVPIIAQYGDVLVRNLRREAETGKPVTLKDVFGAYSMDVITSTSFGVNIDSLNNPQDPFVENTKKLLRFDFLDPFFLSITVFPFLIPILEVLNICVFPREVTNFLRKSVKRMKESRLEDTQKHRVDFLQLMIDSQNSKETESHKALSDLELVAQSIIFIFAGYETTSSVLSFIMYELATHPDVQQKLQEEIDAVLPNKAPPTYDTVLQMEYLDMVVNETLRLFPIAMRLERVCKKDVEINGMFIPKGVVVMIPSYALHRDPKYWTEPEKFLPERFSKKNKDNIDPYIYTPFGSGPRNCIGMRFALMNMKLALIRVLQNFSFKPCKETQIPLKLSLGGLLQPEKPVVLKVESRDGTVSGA

## O=C(O)Cc1ccccc1Nc1c(Cl)cccc1Cl [Diclofenac]
CYP2C9
  CLint CYP2C9: 2.965 µL/min/pmol CYP

## Cc1ncc2n1-c1ccc(Cl)cc1C(c1ccccc1F)=NC2 [Midazolam, reference compound]
CYP3A4
  CLint CYP3A4: 3.083 µL/min/pmol CYP

## CC(C)NCC(O)COc1cccc2ccccc12 (stereo not drawn) [Propranolol, propranolol, reference compound]
[1]
  Papp: 5.68 ×10⁻⁶ cm/s

From article PMC9792776 (Frontiers in Pharmacology, 2022)
